From US10717734B2, “Indole and azaindole haloallylamine derivative inhibitors of lysyl oxidases and uses thereof” (PHARMAXIS LTD., priority 2016, dated 2020)
Structures can show the parent of a compound that is named as a salt.

How the values were obtained:
Format in all cases: biochemical
Bovine LOX = Bovine LOX (Bos taurus (Bovine), UniProt P33072); assay: LOX inhibition, peroxidase-coupled Amplex Red amine oxidase assay; conditions: 30 min preincubation at 37° C., putrescine substrate
Description: (§1) Method to Determine the Ability of Compounds of the Invention to Inhibit LOX and LOXL1-4 from Different Sources
Lysyl oxidase (LOX) is an extracellular copper dependent enzyme which oxidizes peptidyl lysine and hydroxylysine residues in collagen and lysine residues in elastin to produce peptidyl alpha-aminoadipic-delta-semialdehydes. […] There are five LOX family members; these are LOX, LOXL1, LOXL2, LOXL3 and LOXL4. LOX and LOXL family members can be acquired as recombinant active proteins from commercial sources, or extracted from animal tissues like bovine aorta, tendons, pig skin; or prepared from cell cultures. The inhibitory effects of the compounds of the present invention were tested against the given LOX-LOXL preparation using a high-throughput coupled colorimetric method (Holt A. and Palcic M., A peroxidase-coupled continuous absorbance plate-reader assay for flavin monoamine oxidases, copper-containing amine oxidases and related enzymes. Nat. Protoc. 2006; 1: 2498-2505). The assay was developed using either 384 or 96 well format. Briefly, in a standard 384 well plate assay 25 μL of a dilution of any of the isoenzymes and orthologues in 1.2 M urea, 50 mM sodium borate buffer (pH 8.2) were added into each well in the presence of 1 μM mofegiline and 0.5 mM pargyline (to inhibit SSAO and MAO-B and MAO-A, respectively). […] Twenty five μL of a reaction mixture containing twice the KM concentration of putrescine (Sigma Aldrich, e.g. 20 mM for LOX, or 10 mM for LOXL2 and LOXL3), 120 μM Amplex Red (Sigma Aldrich) and 1.5 U/mL horseradish peroxidase (Sigma Aldrich) prepared in 1.2 M urea, 50 mM sodium borate buffer (pH 8.2) were then added to the corresponding wells. The above volumes were doubled in the case of 96 wells plate. The fluorescence (RFU) was read every 2.5 min for 30 min at a range of temperatures from 37° to 45° C., excitation 565 nm and emission 590 (Optima; BMG labtech). The slope of the kinetics for each well was calculated using MARS data analysis software (BMG labtech) and this value was used to deduce the IC50 value (Dotmatics).

Human LOXL2 = Human LOXL2 (Homo sapiens (Human), UniProt Q9Y4K0); assay: LOXL2 inhibition, peroxidase-coupled Amplex Red amine oxidase assay; conditions: 30 min preincubation at 37° C., putrescine substrate
Human LOXL2, sequence (Q9Y4K0 26-774): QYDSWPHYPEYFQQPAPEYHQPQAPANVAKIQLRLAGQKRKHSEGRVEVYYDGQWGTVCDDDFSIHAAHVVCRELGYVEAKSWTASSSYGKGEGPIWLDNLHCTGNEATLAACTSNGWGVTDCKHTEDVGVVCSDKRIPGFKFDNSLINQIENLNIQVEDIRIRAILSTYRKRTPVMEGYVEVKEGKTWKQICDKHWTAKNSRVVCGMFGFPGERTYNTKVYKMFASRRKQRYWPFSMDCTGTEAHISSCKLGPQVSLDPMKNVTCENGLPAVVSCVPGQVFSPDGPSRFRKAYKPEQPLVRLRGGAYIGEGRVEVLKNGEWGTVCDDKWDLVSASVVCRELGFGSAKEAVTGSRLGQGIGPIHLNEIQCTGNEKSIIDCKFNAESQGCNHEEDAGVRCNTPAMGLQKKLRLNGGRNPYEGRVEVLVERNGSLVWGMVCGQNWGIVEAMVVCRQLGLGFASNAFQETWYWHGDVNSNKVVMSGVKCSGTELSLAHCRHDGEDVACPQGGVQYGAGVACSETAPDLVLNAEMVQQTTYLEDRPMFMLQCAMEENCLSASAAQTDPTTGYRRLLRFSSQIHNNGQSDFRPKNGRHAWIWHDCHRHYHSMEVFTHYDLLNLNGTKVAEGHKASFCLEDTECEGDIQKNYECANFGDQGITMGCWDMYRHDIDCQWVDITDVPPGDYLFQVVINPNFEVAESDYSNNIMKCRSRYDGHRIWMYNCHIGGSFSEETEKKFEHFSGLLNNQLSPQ
Description: as §1
Lysyl oxidase (LOX) is an extracellular copper dependent enzyme which oxidizes peptidyl lysine and hydroxylysine residues in collagen and lysine residues in elastin to produce peptidyl alpha-aminoadipic-delta-semialdehydes. […] There are five LOX family members; these are LOX, LOXL1, LOXL2, LOXL3 and LOXL4. LOX and LOXL family members can be acquired as recombinant active proteins from commercial sources, or extracted from animal tissues like bovine aorta, tendons, pig skin; or prepared from cell cultures. The inhibitory effects of the compounds of the present invention were tested against the given LOX-LOXL preparation using a high-throughput coupled colorimetric method (Holt A. and Palcic M., A peroxidase-coupled continuous absorbance plate-reader assay for flavin monoamine oxidases, copper-containing amine oxidases and related enzymes. Nat. Protoc. 2006; 1: 2498-2505). The assay was developed using either 384 or 96 well format. Briefly, in a standard 384 well plate assay 25 μL of a dilution of any of the isoenzymes and orthologues in 1.2 M urea, 50 mM sodium borate buffer (pH 8.2) were added into each well in the presence of 1 μM mofegiline and 0.5 mM pargyline (to inhibit SSAO and MAO-B and MAO-A, respectively). Test compounds were dissolved in DMSO and tested in a Concentration Response Curve (CRC) with 11 data points, typically in the micromolar or nanomolar range after incubation with the enzyme for 30 min at 37° C. Twenty five μL of a reaction mixture containing twice the KM concentration of putrescine (Sigma Aldrich, e.g. 20 mM for LOX, or 10 mM for LOXL2 and LOXL3), 120 μM Amplex Red (Sigma Aldrich) and 1.5 U/mL horseradish peroxidase (Sigma Aldrich) prepared in 1.2 M urea, 50 mM sodium borate buffer (pH 8.2) were then added to the corresponding wells. The above volumes were doubled in the case of 96 wells plate. The fluorescence (RFU) was read every 2.5 min for 30 min at a range of temperatures from 37° to 45° C., excitation 565 nm and emission 590 (Optima; BMG labtech). The slope of the kinetics for each well was calculated using MARS data analysis software (BMG labtech) and this value was used to deduce the IC50 value (Dotmatics).

[1] = molecular target: Human recombinant SSAO/VAP-1 (Homo sapiens (Human), UniProt Q16853); assay: Human recombinant SSAO/VAP-1 amine oxidase inhibition; conditions: 30 min preincubation at 37° C., 600 μM benzylamine
Human recombinant SSAO/VAP-1, sequence (Q16853 34-763): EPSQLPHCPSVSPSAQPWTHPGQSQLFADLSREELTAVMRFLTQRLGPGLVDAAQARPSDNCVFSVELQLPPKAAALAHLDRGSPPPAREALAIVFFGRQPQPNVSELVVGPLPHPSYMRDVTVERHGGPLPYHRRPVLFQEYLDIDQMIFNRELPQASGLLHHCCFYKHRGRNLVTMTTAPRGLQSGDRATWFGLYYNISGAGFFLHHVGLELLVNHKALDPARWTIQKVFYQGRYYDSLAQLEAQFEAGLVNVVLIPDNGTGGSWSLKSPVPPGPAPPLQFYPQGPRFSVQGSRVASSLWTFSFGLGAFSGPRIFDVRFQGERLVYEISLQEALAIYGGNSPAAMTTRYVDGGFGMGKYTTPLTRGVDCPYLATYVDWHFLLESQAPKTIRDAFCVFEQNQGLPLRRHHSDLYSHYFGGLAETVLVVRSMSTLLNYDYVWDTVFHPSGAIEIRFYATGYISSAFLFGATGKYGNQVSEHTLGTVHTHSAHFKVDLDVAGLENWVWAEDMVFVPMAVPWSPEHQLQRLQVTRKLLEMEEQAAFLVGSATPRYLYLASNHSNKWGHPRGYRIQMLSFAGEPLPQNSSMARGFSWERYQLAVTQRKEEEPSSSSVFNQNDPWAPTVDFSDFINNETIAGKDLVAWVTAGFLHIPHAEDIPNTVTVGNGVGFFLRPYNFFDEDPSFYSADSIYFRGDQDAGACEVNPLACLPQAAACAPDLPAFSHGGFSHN
Procedure: Method to Determine the Ability of Compounds of Formula I to Inhibit Human Recombinant SSAO/VAP-1
Human recombinant SSAO/VAP-1 amine oxidase activity was determined using the coupled colorimetric method as described for monoamine oxidase, copper-containing amine oxidases and related enzymes (Holt A. and Palcic M., A peroxidase-coupled continuous absorbance plate-reader assay for flavin monoamine oxidases, copper-containing amine oxidases and related enzymes. Nat Protoc 2006; 1: 2498-2505). Briefly, a cloned cDNA template corresponding to residues 34-763 of human SSAO/VAP-1, and incorporating a mouse Ig kappa (κ) signal sequence, N-terminal flag epitope tag and tobacco etch virus (TEV) cleavage site, was assembled in a mammalian expression vector (pLO-CMV) by Geneart AG. This vector containing human SSAO/VAP-1 residues was transfected into CHO-K1 glycosylation mutant cell line, Lec 8. A clone stably expressing human SSAO/VAP-1 was isolated and cultured in large scale. Active human SSAO/VAP-1 was purified and recovered using immunoaffinity chromatography. This was used as the source for SSAO/VAP-1 activity. A high-throughput colorimetric assay was developed using either 96 or 384 well format. Briefly, in a standard 96 well plate assay 50 μL of purified human SSAO/VAP-1 (0.25 μg/mL) in 0.1 M sodium phosphate buffer (pH 7.4) was added into each well. Test compounds were dissolved in DMSO and tested in a Concentration Response Curve (CRC) with 4-11 data points, typically in the micromolar or nanomolar range after incubation with human SSAO/VAP-1 for 30 min at 37° C. After 30 min incubation, 50 μL of the reaction mixture containing 600 μM benzylamine (Sigma Aldrich), 120 μM Amplex Red (Sigma Aldrich) and 1.5 U/mL horseradish peroxidase (Sigma Aldrich) prepared in 0.1 M sodium phosphate buffer (pH 7.4) were added to the corresponding well. The fluorescence unit (RFU) was read every 2.5 min for 30 min at 37° C. excitation 565 nm and emission 590 (Optima; BMG labtech). The slope of the kinetics for each well was calculated using MARS data analysis software (BMG labtech) and this value was used to deduce the IC50 value (Dotmatics).

Recombinant human MAO-B = Recombinant human MAO-B (Homo sapiens (Human), UniProt P27338); assay: Human recombinant MAO-B inhibition; conditions: benzylamine 100 μM
Recombinant human MAO-B, sequence (P27338 whole entry): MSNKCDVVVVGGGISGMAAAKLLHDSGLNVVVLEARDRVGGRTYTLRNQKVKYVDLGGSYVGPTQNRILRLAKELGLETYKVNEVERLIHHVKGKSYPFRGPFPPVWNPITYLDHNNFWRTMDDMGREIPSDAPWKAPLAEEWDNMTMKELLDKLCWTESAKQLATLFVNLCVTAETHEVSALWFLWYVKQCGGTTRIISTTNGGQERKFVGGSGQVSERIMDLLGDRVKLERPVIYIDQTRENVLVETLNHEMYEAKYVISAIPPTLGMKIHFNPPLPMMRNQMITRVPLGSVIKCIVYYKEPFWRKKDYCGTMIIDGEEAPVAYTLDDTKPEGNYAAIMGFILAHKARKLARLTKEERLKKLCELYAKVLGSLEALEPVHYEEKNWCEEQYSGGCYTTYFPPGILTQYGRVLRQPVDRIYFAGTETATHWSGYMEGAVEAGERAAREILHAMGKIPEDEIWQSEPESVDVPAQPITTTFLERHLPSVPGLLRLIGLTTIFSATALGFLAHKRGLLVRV
Procedure: Method to Determine the Ability of Compounds of Formula I to Inhibit Human Recombinant MAO-B
The specificity of the compounds of this invention was tested by determining their ability to inhibit MAO-B activities in vitro. Recombinant human MAO-B (0.06 mg/mL; Sigma Aldrich) was used as source of MAO-B enzyme activities. The assay was performed in a similar way as for human SSAO/VAP-1 (Example 36) except, the substrate benzylamine was used at 100 μM.

Bovine LOX, sequence (P33072 170-418): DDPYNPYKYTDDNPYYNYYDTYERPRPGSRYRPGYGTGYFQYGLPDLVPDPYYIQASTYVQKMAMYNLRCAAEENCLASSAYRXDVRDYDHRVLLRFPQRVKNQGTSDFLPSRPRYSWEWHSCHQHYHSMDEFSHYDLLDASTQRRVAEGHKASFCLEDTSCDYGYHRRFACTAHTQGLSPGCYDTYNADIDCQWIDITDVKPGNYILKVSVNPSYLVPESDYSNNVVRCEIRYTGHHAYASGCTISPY

Compound	IC50 (Bovine LOX) [nM]	IC50 (Human LOXL2) [nM]	IC50 [1] [nM]	IC50 (Recombinant human MAO-B) [nM]
Cc1c(Cc2ccc(S(=O)(=O)N(C)C)cc2)c2cc(C(=O)N(C)C)ccc2n1C/C(F)=C/CN [Compound 3, (Z)-1-(4-amino-2-fluorobut-2-en-1-yl)-3-(4-(N,N-dimethylsulfamoyl)benzyl)-N,N,2-trimethyl-1H-indole-5-carboxamide hydrochloride]	> 300	< 300	> 3000	> 3000
Cc1c(Cc2ccc(S(C)(=O)=O)cc2)c2ncccc2n1C/C(F)=C/CN [Compound 10, (Z)-3-fluoro-4-(2-methyl-3-(4-(methylsulfonyl)benzyl)-1H-pyrrolo[3,2-b]pyridin-1-yl)but-2-en-1-amine dihydrochloride]	> 300	< 300	> 3000	> 3000
Cc1c(Cc2ccc(S(=O)(=O)N(C)C)cc2)c2nc(C(C)(C)O)ccc2n1C/C(F)=C/CN [Compound 28, (Z)-4-((1-(4-amino-2-fluorobut-2-en-1-yl)-5-(2-hydroxypropan-2-yl)-2-methyl-1H-pyrrolo[3,2-b]pyridin-3-yl)methyl)-N,N-dimethylbenzenesulfonamide dihydrochloride]	> 300	< 300	> 3000	> 3000
Cc1cc2c(nc1O)c(Cc1ccc(S(=O)(=O)N(C)C)cc1)c(C)n2C/C(F)=C/CN [Compound 19, (Z)-4-((1-(4-amino-2-fluorobut-2-en-1-yl)-5-hydroxy-2,6-dimethyl-1H-pyrrolo[3,2-b]pyridin-3-yl)methyl)-N,N-dimethylbenzenesulfonamide dihydrochloride]	> 300	< 300	> 3000	> 3000
Cc1c(Cc2cccc(S(=O)(=O)N(C)C)c2)c2cc(S(=O)(=O)N(C)C)ccc2n1C/C(F)=C/CN [Compound 7, (Z)-1-(4-amino-2-fluorobut-2-en-1-yl)-3-(3-(N,N-dimethylsulfamoyl)benzyl)-N,N,2-trimethyl-1H-indole-5-sulfonamide hydrochloride]	> 300	< 300	> 3000	> 3000
Cc1c(Cc2ccc(S(C)(=O)=O)nc2)c2nc(C3CC3)ccc2n1C/C(F)=C/CN [Compound 27, (Z)-4-(5-cyclopropyl-2-methyl-3-((6-(methylsulfonyl)pyridin-3-yl)methyl)-1H-pyrrolo[3,2-b]pyridin-1-yl)-3-fluorobut-2-en-1-amine trihydrochloride]	> 300	< 300	> 3000	> 3000
Cc1ccc2c(n1)c(Cc1ccc(S(C)(=O)=O)cc1)c(C)n2C/C(F)=C/CN [Compound 12, (Z)-4-(2,5-dimethyl-3-(4-(methylsulfonyl)benzyl)-1H-pyrrolo[3,2-b]pyridin-1-yl)-3-fluorobut-2-en-1-amine dihydrochloride]	> 300	< 300	> 3000	> 3000
Cc1cnc2c(Cc3ccc(S(=O)(=O)N(C)C)cc3)c(C)n(C/C(F)=C/CN)c2c1 [Compound 11, (Z)-4-((1-(4-amino-2-fluorobut-2-en-1-yl)-2,6-dimethyl-1H-pyrrolo[3,2-b]pyridin-3-yl)methyl)-N,N-dimethylbenzenesulfonamide dihydrochloride]	> 300	< 300	> 3000	> 3000
Cc1c(Cc2ccc(S(=O)(=O)N(C)C)cc2)c2ncccc2n1C/C(F)=C/CN [Compound 8, (Z)-4-((1-(4-amino-2-fluorobut-2-en-1-yl)-2-methyl-1H-pyrrolo[3,2-b]pyridin-3-yl)methyl)-N,N-dimethylbenzenesulfonamide dihydrochloride]	> 300	< 300	> 3000	> 3000
Cc1c(Cc2ccc(S(=O)(=O)N(C)C)cc2)c2cc(S(=O)(=O)N(C)C)ccc2n1C/C(F)=C/CN [Compound 6, (Z)-1-(4-amino-2-fluorobut-2-en-1-yl)-3-(4-(N,N-dimethylsulfamoyl)benzyl)-N,N,2-trimethyl-1H-indole-5-sulfonamide hydrochloride]	> 300	< 300	> 3000	> 3000
Cc1c(Cc2ccc(S(=O)(=O)N(C)C)cc2)c2ncc(F)cc2n1C/C(F)=C/CN [Compound 24, (Z)-4-((1-(4-amino-2-fluorobut-2-en-1-yl)-6-fluoro-2-methyl-1H-pyrrolo[3,2-b]pyridin-3-yl)methyl)-N,N-dimethylbenzenesulfonamide dihydrochloride]	> 300	< 300	> 3000	> 3000
Cc1ccc2c(n1)c(CCc1ccc(S(C)(=O)=O)cc1)c(C)n2C/C(F)=C/CN [Compound 40, (Z)-4-(2,5-dimethyl-3-(4-(methylsulfonyl)phenethyl)-1H-pyrrolo[3,2-b]pyridin-1-yl)-3-fluorobut-2-en-1-amine dihydrochloride]	> 300	< 300	> 3000	> 3000
Cc1c(Cc2ccc(S(C)(=O)=O)cc2Cl)c2ncccc2n1C/C(F)=C/CN [Compound 20, (Z)-4-(3-(2-chloro-4-(methylsulfonyl)benzyl)-2-methyl-1H-pyrrolo[3,2-b]pyridin-1-yl)-3-fluorobut-2-en-1-amine dihydrochloride]	> 300	< 300	> 3000	> 3000
